The values below are quoted from earlier work in patent US20240207206A1, “Improved Topical Composition of Colchicine” (Zenvision Pharma LLP, priority 2019, published 2024).

The conditions of the data set: in water.

As for `COc1cc2c(c(OC)c1OC)-c1ccc(OC)c(=O)cc1[C@@H](NC(C)=O)CC2` [Colchicine, (S)N-(5,6,7,9-tetrahydro-1,2,3, 10-tetramethoxy-9-oxobenzo[alpha]heptalen-7-yl) acetamide], the Solubility entry was “soluble in water”.
